Assay [1] deals with bacteria in peritoneal fluids of CLP mice. Briefly: In vivo disinfection activity: bacterial colonies in peritoneal fluid after CLP. Particulars: 24 hours after the CLP; FIG. 10. Set-up: species or system mouse; reference not given here. The method, then: A peritoneal lavage fluid was collected 24 hours after CLP, and incubated at 37° C. overnight in a blood agar base plate (trypticase soy agar Deeps, Becton Dickinson). The number of colony forming units (CFUs) was counted according to a method disclosed in Yan J J et al. 2004 Nat. Med. 10:161-167.
A death rate by CLP is correlated with the number of bacterial colonies in a peritoneal fluid. Therefore, an effect of the Ac-PGP on removal of bacteria in a peritoneal fluid was examined. […] In vitro disinfection activity of the Ac-PGP was examined using neutrophils derived from a mouse. The mouse neutrophils were kept for an hour to phagocytize E. coli, and then stimulated with various concentrations of Ac-PGP (0.1 to 100 nM) for 20 minutes. […] A reactive oxygen species such as hydrogen peroxide was known as an important molecule participating in the disinfection activity. Therefore, an effect of Ac-PGP on production of hydrogen peroxide in the mouse neutrophils was examined. […] To examine a role of CXCR2 in production of hydrogen peroxide by the Ac-PGP, the mouse neutrophils were pretreated with a CXCR2 antagonist (SB225002) before they were treated with the Ac-PGP.

A further assay concerns mouse neutrophils. Description: H2O2 production in mouse neutrophils. It counts as cell-based. The conditions noted are these: various concentrations, 10 minutes, cytochalasin B 5 μM; FIG. 12. The method, then: Mouse neutrophils were separated from peripheral blood using a Histopaque-1077 solution (Sigma) (Bae Y S et al. 2001 Blood. 97: 2854-2862). The neutrophils separated from normal mice were stimulated with various concentrations of Ac-PGP for 10 minutes in the presence of cytochalasin B (5 μM). To identify the role of mCXCR2, the neutrophils were pre-incubated in various concentrations of SB225002 or a vehicle (DMSO) for 30 minutes in a stationary environment, and Ac-PGP (20 μM) was added, and incubated for 10 minutes. H2O2 in a supernatant was measured using a H2O2 measurement kit (Molecular probe).
A death rate by CLP is correlated with the number of bacterial colonies in a peritoneal fluid. Therefore, an effect of the Ac-PGP on removal of bacteria in a peritoneal fluid was examined. […] In vitro disinfection activity of the Ac-PGP was examined using neutrophils derived from a mouse. The mouse neutrophils were kept for an hour to phagocytize E. coli, and then stimulated with various concentrations of Ac-PGP (0.1 to 100 nM) for 20 minutes. […] A reactive oxygen species such as hydrogen peroxide was known as an important molecule participating in the disinfection activity. Therefore, an effect of Ac-PGP on production of hydrogen peroxide in the mouse neutrophils was examined. […]

The next assay relates to mouse splenocytes. Description: Cytokine release from LPS-stimulated mouse splenocytes (ELISA). In kind it is cell-based. As to the method: Mouse splenocytes were positioned on an RPMI 1640 medium including 5% FBS in a 96-well plate, and maintained at 37° C. in a 5% CO2 incubator. Thereafter, the splenocytes were stationarily incubated with LPS (100 ng/ml) for 24 hours in the presence or absence of Ac-PGP. After 30 minutes, LPS was added to the cells and collected a cell-free supernatant, and then the supernatant was centrifuged, and TNF-α, IL-6 and IFN-γ were measured using ELISA (BD Biosciences Pharmingen). In regards to the effect of IFN-γ on production of pro-inflammatory cytokines induced by LPS, 5×10^5 cells/ml of the mouse splenocytes were stimulated with 100 ng/ml of LPS in the presence or absence IFN-γ (R&D) (at various concentrations of 1, 10, 100 and 1,000 IU/ml). Amounts of TNF-α and IL-6 were measured 20 hours after stationary incubation using ELISA (BD Biosciences Pharmingen).
An effect of the Ac-PGP on a pro-inflammatory cytokine in a peritoneal fluid by CLP was determined from 4 to 72 hours after the CLP. The CLP induced a remarkable increase in levels of pro-inflammatory cytokines (TNF-α, IL-1β and IL-6) within 24 hours (FIGS. 14 to 16). Injection of the Ac-PGP in a sepsis model by the CLP induced a remarkable change in levels of the cytokines. […] To evaluate an effect of the Ac-PGP on production of the pro-inflammatory cytokines by the LPS, in vitro production of TNF-α and IL-6 by the mouse splenocytes was evaluated. Direct release of the TNF-α and IL-6 from the mouse splenocytes by the LPS was suppressed by in vitro treatment with the Ac-PGP (FIGS. 17 and 18).
Since it was confirmed that the administration of the Ac-PGP improved in vivo production of IFN-γ, a direct effect of the Ac-PGP on production of IFN-γ by splenocytes was examined. […] Also, an effect of IFN-γ on production of the pro-inflammatory cytokines was also examined.
(ELISA stands for enzyme-linked immunosorbent assay.)

The next assay has as its system caspase-3. Description: Caspase-3 activation in splenocytes of CLP mice (immunohistochemistry). It counts as in vivo, mouse. Particulars: FIG. 23. As to the method: First, a tissue embedded in paraffin was deparaffinized using a typical histological protocol, and performed digoxigenin-dUTP nick end labeling (TUNEL) analysis. Sections were permeated into the Triton X-100 at 4° C. for 2 minutes, and the sections were flooded in terminal deoxynucleotidyl transferase (TdT) and a TUNEL reagent at 37° C. for 60 minutes. A percentage of apoptotic cells (TUNEL-positive cells) was determined by counting 500 splenocytes under an optical microscope. Also, the tissue embedded in paraffin was deparaffinized using a typical histological protocol, and immunohistochemical analysis was performed on the microtomed sections of caspase-3 (Wang J. et al. 2001 Proc. Natl. Acad. Sci. USA 98:4038-43).
The apoptosis of immune cells is associated with the mortality on sepsis. Here, the CLP was proven to remarkably increase apoptosis of splenocytes (FIG. 22). […] Apoptosis of lymphocytes was induced by activation of some major caspases including caspase-3. Therefore, not only the effect of Ac-PGP on activation of caspase-3 but also the effect of CLP activation by caspase-3 were examined (FIG. 23).

The subject of the next assay is PBMCs. Description: Cytokine production by LPS-stimulated human PBMCs. In kind it is cell-based. The conditions noted are these: human PBMCs stimulated with LPS. The text has this: All kinds of protocols used in human beings were approved by the Institutional Review Board (IRB) at Dong-A University Hospital, and prior consents were obtained from all blood donors. Peripheral blood was collected from healthy donors, and human peripheral monocytes were separated using a Histopaque-1077 gradient. Neutrophils were separated through methods such as dextran precipitation of red blood cell, hypotonic lysis, and usage of lymphocyte isolation medium gradient, as known in the related art (Bae, Y. S. et al. Blood 97, 2854-2862(2001)). The separated human leukocytes were used immediately.
Next, an effect of the Ac-PGP on production of cytokines by human neutrophils and PBMCs was examined. […] A human CXCR2 chemokine agonist CXCL8 had few effects on production of TNF-α or IFN-γ stimulated with LPS (FIG. 28 to FIG. 31). Therefore, the Ac-PGP could improve both antiseptic activities in leukocytes derived from human beings and mice.

Regarding acetylated-Pro-Gly-Pro [Ac-PGP], the “number of bacterial colonies in the peritoneal fluid” value in assay [1] worked out at 82.1%. Moreover, the “production of hydrogen peroxide” value with mouse neutrophils is given as “strongly increased production of hydrogen peroxide in a concentration-dependent manner”. The “release of TNF-α by LPS” value with mouse splenocytes (LPS 100 ng/ml, 24 hours, FIG. 17) is reported as “suppressed”. Besides, in the assay with mouse splenocytes (LPS 100 ng/ml, 24 hours, FIG. 18), the “release of IL-6 by LPS” value was “suppressed”. In addition, the “production of IFN-γ by LPS” value in the assay with mouse splenocytes (LPS-stimulated splenocytes, FIG. 24) is reported as “increased production of IFN-γ”. For the same substance, the “activation of caspase-3” value in the assay with caspase-3 is “remarkably suppressed”. Also, in the assay with PBMCs (FIG. 29), the “production of TNF-α” value is listed as “remarkably suppressed”. In addition, the “production of IFN-γ” value in the assay on PBMCs (FIG. 31) was “remarkably improved”.

These data come from patent US8937038B2, “Composition containing peptide ligand that bonds with CXCR2 for treating infective and inflammatory diseases” (priority 2010, dated 2015).
